Measurements taken from PubChem BioAssay (NCI).
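48-hour exposure; five concentrations; linearly interpolated endpoints. GI50 marks 50% less growth. The concentration for full growth arrest is given as TGI.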

How the values were obtained:
Assay in all cases: NCI-60 cell line screen, 48 h
786-0 renal = test system: 786-0 renal
A498 renal = test system: A498 renal
A549 NSCLC = test system: A549 NSCLC
ACHN renal = test system: ACHN renal
BT-549 breast = test system: BT-549 breast
CAKI-1 renal = test system: CAKI-1 renal
CCRF-CEM leukemia = test system: CCRF-CEM leukemia
EKVX NSCLC = test system: EKVX NSCLC
HCC-2998 colon = test system: HCC-2998 colon
HCT-15 colon = test system: HCT-15 colon
HL-60(TB) leukemia = test system: HL-60(TB) leukemia
HOP-92 NSCLC = test system: HOP-92 NSCLC
HS 578T breast = test system: HS 578T breast
HT29 colon = test system: HT29 colon
IGROV1 ovarian = test system: IGROV1 ovarian
K-562 leukemia = test system: K-562 leukemia
KM12 colon = test system: KM12 colon
LOX IMVI melanoma = test system: LOX IMVI melanoma
M14 melanoma = test system: M14 melanoma
MCF7 breast = test system: MCF7 breast
MOLT-4 leukemia = test system: MOLT-4 leukemia
NCI-H226 lung = test system: NCI-H226 lung
NCI-H23 lung = test system: NCI-H23 lung
NCI-H460 lung = test system: NCI-H460 lung
NCI/ADR-RES ovarian = test system: NCI/ADR-RES ovarian
OVCAR-3 ovarian = test system: OVCAR-3 ovarian
OVCAR-4 ovarian = test system: OVCAR-4 ovarian
OVCAR-5 ovarian = test system: OVCAR-5 ovarian
OVCAR-8 ovarian = test system: OVCAR-8 ovarian
PC-3 prostate = test system: PC-3 prostate
RPMI-8226 leukemia = test system: RPMI-8226 leukemia
RXF 393 renal = test system: RXF 393 renal
SF-268 CNS = test system: SF-268 CNS
SF-539 CNS = test system: SF-539 CNS
SK-MEL-28 melanoma = test system: SK-MEL-28 melanoma
SK-MEL-5 melanoma = test system: SK-MEL-5 melanoma
SK-OV-3 ovarian = test system: SK-OV-3 ovarian
SN12C renal = test system: SN12C renal
SNB-19 CNS = test system: SNB-19 CNS
SNB-75 CNS = test system: SNB-75 CNS
SR leukemia = test system: SR leukemia
SW-620 colon = test system: SW-620 colon
TK-10 renal = test system: TK-10 renal
U251 CNS = test system: U251 CNS
UACC-62 melanoma = test system: UACC-62 melanoma
UO-31 renal = test system: UO-31 renal
COLO 205 colon = test system: COLO 205 colon
DU-145 prostate = test system: DU-145 prostate
HCT-116 colon = test system: HCT-116 colon
HOP-62 NSCLC = test system: HOP-62 NSCLC
MALME-3M melanoma = test system: MALME-3M melanoma
NCI-H522 lung = test system: NCI-H522 lung
SF-295 CNS = test system: SF-295 CNS
SK-MEL-2 melanoma = test system: SK-MEL-2 melanoma
UACC-257 melanoma = test system: UACC-257 melanoma

O=C(NCCN1CCCCC1)c1cccc(I)c1
TGI (786-0 renal): > 100000 nM | TGI (A498 renal): > 100000 nM | TGI (A549 NSCLC): > 100000 nM | TGI (ACHN renal): > 100000 nM | TGI (BT-549 breast): > 100000 nM | TGI (CAKI-1 renal): > 100000 nM | TGI (CCRF-CEM leukemia): > 100000 nM | TGI (EKVX NSCLC): > 100000 nM | TGI (HCC-2998 colon): > 100000 nM | TGI (HCT-15 colon): > 100000 nM | TGI (HL-60(TB) leukemia): > 100000 nM | TGI (HOP-92 NSCLC): > 100000 nM | TGI (HS 578T breast): > 100000 nM | TGI (HT29 colon): > 100000 nM | TGI (IGROV1 ovarian): > 100000 nM | TGI (K-562 leukemia): > 100000 nM | TGI (KM12 colon): > 100000 nM | TGI (LOX IMVI melanoma): > 100000 nM | TGI (M14 melanoma): > 100000 nM | TGI (MCF7 breast): > 100000 nM | TGI (MOLT-4 leukemia): > 100000 nM | TGI (NCI-H226 lung): > 100000 nM | TGI (NCI-H23 lung): > 100000 nM | TGI (NCI-H460 lung): > 100000 nM | TGI (NCI/ADR-RES ovarian): > 100000 nM | TGI (OVCAR-3 ovarian): > 100000 nM | TGI (OVCAR-4 ovarian): > 100000 nM | TGI (OVCAR-5 ovarian): > 100000 nM | TGI (OVCAR-8 ovarian): > 100000 nM | TGI (PC-3 prostate): > 100000 nM | TGI (RPMI-8226 leukemia): > 100000 nM | TGI (RXF 393 renal): > 100000 nM | TGI (SF-268 CNS): > 100000 nM | TGI (SF-539 CNS): > 100000 nM | TGI (SK-MEL-28 melanoma): > 100000 nM | TGI (SK-MEL-5 melanoma): > 100000 nM | TGI (SK-OV-3 ovarian): > 100000 nM | TGI (SN12C renal): > 100000 nM | TGI (SNB-19 CNS): > 100000 nM | TGI (SNB-75 CNS): > 100000 nM | TGI (SR leukemia): > 100000 nM | TGI (SW-620 colon): > 100000 nM | TGI (TK-10 renal): > 100000 nM | TGI (U251 CNS): > 100000 nM | TGI (UACC-62 melanoma): > 100000 nM | TGI (UO-31 renal): > 100000 nM

CCc1ccc2c(c1)N(CCO)C1=C(C(=O)OC1)C2c1cc(OC)c(OC)c(OC)c1 (stereo not given)
GI50 (786-0 renal): 245 nM | TGI (786-0 renal): > 14500 nM | GI50 (A498 renal): 103 nM | TGI (A498 renal): 932 nM | GI50 (A549 NSCLC): 236 nM | TGI (A549 NSCLC): > 50000 nM | GI50 (ACHN renal): 389 nM | TGI (ACHN renal): > 50000 nM | GI50 (BT-549 breast): 564 nM | TGI (BT-549 breast): > 15700 nM | GI50 (CAKI-1 renal): 599 nM | TGI (CAKI-1 renal): > 50000 nM | GI50 (CCRF-CEM leukemia): 185 nM | TGI (CCRF-CEM leukemia): > 50000 nM | GI50 (COLO 205 colon): 151 nM | TGI (COLO 205 colon): 437 nM | GI50 (DU-145 prostate): 174 nM | TGI (DU-145 prostate): 856 nM | GI50 (EKVX NSCLC): 1170 nM | TGI (EKVX NSCLC): > 50000 nM | GI50 (HCC-2998 colon): 327 nM | TGI (HCC-2998 colon): > 10300 nM | GI50 (HCT-116 colon): 188 nM | TGI (HCT-116 colon): 1770 nM | GI50 (HCT-15 colon): 425 nM | TGI (HCT-15 colon): > 50000 nM | GI50 (HL-60(TB) leukemia): 142 nM | TGI (HL-60(TB) leukemia): 480 nM | GI50 (HOP-62 NSCLC): 207 nM | TGI (HOP-62 NSCLC): > 50000 nM | GI50 (HOP-92 NSCLC): 716 nM | TGI (HOP-92 NSCLC): > 50000 nM | GI50 (HS 578T breast): 218 nM | TGI (HS 578T breast): > 50000 nM | GI50 (HT29 colon): 143 nM | TGI (HT29 colon): 447 nM | GI50 (IGROV1 ovarian): 376 nM | TGI (IGROV1 ovarian): > 50000 nM | GI50 (K-562 leukemia): 176 nM | TGI (K-562 leukemia): > 30400 nM | GI50 (KM12 colon): 163 nM | TGI (KM12 colon): 987 nM | GI50 (LOX IMVI melanoma): 318 nM | TGI (LOX IMVI melanoma): > 50000 nM | GI50 (MALME-3M melanoma): 218 nM | TGI (MALME-3M melanoma): > 50000 nM | GI50 (MCF7 breast): 209 nM | TGI (MCF7 breast): > 50000 nM | GI50 (MOLT-4 leukemia): 486 nM | TGI (MOLT-4 leukemia): > 50000 nM | GI50 (NCI-H226 lung): 178 nM | TGI (NCI-H226 lung): 2440 nM | GI50 (NCI-H23 lung): 219 nM | TGI (NCI-H23 lung): > 14400 nM | GI50 (NCI-H460 lung): 178 nM | TGI (NCI-H460 lung): 7620 nM | GI50 (NCI-H522 lung): 83.7 nM | TGI (NCI-H522 lung): 260 nM | GI50 (NCI/ADR-RES ovarian): 974 nM | TGI (NCI/ADR-RES ovarian): 6650 nM | GI50 (OVCAR-3 ovarian): 112 nM | TGI (OVCAR-3 ovarian): 274 nM | GI50 (OVCAR-4 ovarian): 362 nM | TGI (OVCAR-4 ovarian): > 50000 nM | GI50 (OVCAR-5 ovarian): 422 nM | TGI (OVCAR-5 ovarian): > 50000 nM | GI50 (OVCAR-8 ovarian): 184 nM | TGI (OVCAR-8 ovarian): 1220 nM | GI50 (PC-3 prostate): 196 nM | TGI (PC-3 prostate): > 50000 nM | GI50 (RPMI-8226 leukemia): 201 nM | TGI (RPMI-8226 leukemia): 42000 nM | GI50 (SF-268 CNS): 300 nM | TGI (SF-268 CNS): > 19800 nM | GI50 (SF-295 CNS): 126 nM | TGI (SF-295 CNS): 469 nM | GI50 (SK-MEL-2 melanoma): 143 nM | TGI (SK-MEL-2 melanoma): 469 nM | GI50 (SK-MEL-28 melanoma): 275 nM | TGI (SK-MEL-28 melanoma): > 50000 nM | GI50 (SK-MEL-5 melanoma): 126 nM | TGI (SK-MEL-5 melanoma): 581 nM | GI50 (SK-OV-3 ovarian): 169 nM | GI50 (SN12C renal): 345 nM | TGI (SN12C renal): > 50000 nM | GI50 (SNB-19 CNS): 263 nM | TGI (SNB-19 CNS): > 50000 nM | GI50 (SNB-75 CNS): 134 nM | TGI (SNB-75 CNS): > 50000 nM | GI50 (SR leukemia): 187 nM | TGI (SR leukemia): > 50000 nM | GI50 (SW-620 colon): 168 nM | TGI (SW-620 colon): > 50000 nM | GI50 (TK-10 renal): 248 nM | TGI (TK-10 renal): > 50000 nM | GI50 (U251 CNS): 182 nM | TGI (U251 CNS): > 50000 nM | GI50 (UACC-257 melanoma): 197 nM | TGI (UACC-257 melanoma): > 50000 nM | GI50 (UACC-62 melanoma): 182 nM | TGI (UACC-62 melanoma): > 50000 nM | GI50 (UO-31 renal): 457 nM | TGI (UO-31 renal): > 50000 nM

CC(C)Cc1ccc(C(C)C(=O)O)cc1 (stereo not given)
TGI (NCI-H23 lung): > 100000 nM
